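Dose response: 5 concentrations. Exposure: 48 h. Format: 96-well plates. Endpoint: linear interpolation; highest concentration if not reached. At the GI50, growth is halved. TGI: concentration producing complete growth inhibition.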
Tests used:
Experiment in all cases: NCI tumour cell line growth inhibition, 48 h; in the data active = GI50 below about 0.43 µM; inactive = the rest
[1] = system: 786-0 renal
[2] = system: A498 renal
[3] = system: A549 NSCLC
[4] = system: ACHN renal
[5] = system: BT-549 breast
[6] = system: CAKI-1 renal
[7] = system: CCRF-CEM leukemia
[8] = system: COLO 205 colon
[9] = system: DU-145 prostate
[10] = system: EKVX NSCLC
[11] = system: HCC-2998 colon
[12] = system: HCT-116 colon
[13] = system: HCT-15 colon
[14] = system: HL-60(TB) leukemia
[15] = system: HOP-62 NSCLC
[16] = system: HOP-92 NSCLC
[17] = system: HS 578T breast
[18] = system: HT29 colon
[19] = system: IGROV1 ovarian
[20] = system: K-562 leukemia
[21] = system: KM12 colon
[22] = system: LOX IMVI melanoma
[23] = system: M14 melanoma
[24] = system: MALME-3M melanoma
[25] = system: MCF7 breast
[26] = system: MDA-MB-231 breast
[27] = system: MDA-MB-435
[28] = system: MOLT-4 leukemia
[29] = system: NCI-H226 lung
[30] = system: NCI-H23 lung
[31] = system: NCI-H460 lung
[32] = system: NCI-H522 lung
[33] = system: NCI/ADR-RES ovarian
[34] = system: OVCAR-3 ovarian
[35] = system: OVCAR-4 ovarian
[36] = system: OVCAR-5 ovarian
[37] = system: OVCAR-8 ovarian
[38] = system: PC-3 prostate
[39] = system: RPMI-8226 leukemia
[40] = system: RXF 393 renal
[41] = system: SF-268 CNS
[42] = system: SF-295 CNS
[43] = system: SF-539 CNS
[44] = system: SK-MEL-2 melanoma
[45] = system: SK-MEL-28 melanoma
[46] = system: SK-MEL-5 melanoma
[47] = system: SK-OV-3 ovarian
[48] = system: SN12C renal
[49] = system: SNB-19 CNS
[50] = system: SNB-75 CNS
[51] = system: SR leukemia
[52] = system: SW-620 colon
[53] = system: T-47D breast
[54] = system: TK-10 renal
[55] = system: U251 CNS
[56] = system: UACC-257 melanoma
[57] = system: UACC-62 melanoma
[58] = system: UO-31 renal
[59] = system: MDA-N

C=CC(=O)N[C@H]1CCOC[C@H]1Nc1ncc2cc(-c3c(Cl)c(OC)cc(OC)c3Cl)ccc2n1
29.5 µM: TGI [8]
> 100 µM: TGI [1] | TGI [3] | TGI [4] | TGI [6] | TGI [7] | TGI [9] | TGI [11] | TGI [15] | TGI [17] | TGI [18] | TGI [19] | TGI [20] | TGI [21] | TGI [26] | TGI [28] | TGI [30] | TGI [31] | TGI [32] | TGI [33] | TGI [34] | TGI [35] | TGI [36] | TGI [37] | TGI [38] | TGI [41] | TGI [42] | TGI [47] | TGI [48] | TGI [49] | TGI [50] | TGI [51] | TGI [52] | TGI [54] | TGI [55] | TGI [56] | TGI [58]
40.2 µM: TGI [23]
29.9 µM: TGI [43]
48.9 µM: TGI [22]
57.2 µM: TGI [12]
30.6 µM: TGI [57]
64 µM: TGI [24]
80.2 µM: TGI [45]
94.3 µM: TGI [10]
61.5 µM: TGI [39]
85.5 µM: TGI [53]
87.2 µM: TGI [29]
15.8 µM: TGI [5]
65.8 µM: TGI [27]
84.4 µM: TGI [13]
33.7 µM: TGI [2]
inactive: GI50 [1] 17.5 µM | GI50 [2] 3.36 µM | GI50 [3] 30.5 µM | GI50 [4] 15.8 µM | GI50 [5] 2860 nM | GI50 [6] 12.5 µM | GI50 [7] 21.9 µM | GI50 [8] 13.8 µM | GI50 [9] 24.4 µM | GI50 [10] 4.31 µM | GI50 [11] 32.7 µM | GI50 [12] 12.7 µM | GI50 [13] 7.89 µM | GI50 [14] 12 µM | GI50 [15] 43 µM | GI50 [16] 5.38 µM | GI50 [17] 17.8 µM | GI50 [18] 13.2 µM | GI50 [19] 23.7 µM | GI50 [20] 13.9 µM | GI50 [21] 27.1 µM | GI50 [22] 14.9 µM | GI50 [23] 11.8 µM | GI50 [24] 13.1 µM | GI50 [25] 5.65 µM | GI50 [26] 17.7 µM | GI50 [27] 15.3 µM | GI50 [28] 6.43 µM | GI50 [29] 10.7 µM | GI50 [30] 22 µM | GI50 [31] 13.8 µM | GI50 [32] 30.9 µM | GI50 [33] 20.7 µM | GI50 [34] 20.3 µM | GI50 [35] 6.05 µM | GI50 [36] 45.1 µM | GI50 [37] 39.3 µM | GI50 [38] 14.8 µM | GI50 [39] 9.04 µM | GI50 [40] 5.35 µM | GI50 [41] 16.2 µM | GI50 [42] 16 µM | GI50 [43] 12.5 µM | GI50 [44] 11.9 µM | GI50 [45] 18.3 µM | GI50 [46] 7.06 µM | GI50 [47] 26.9 µM | GI50 [48] 16.2 µM | GI50 [49] 26.5 µM | GI50 [50] 12 µM | GI50 [51] 10.6 µM | GI50 [52] 27.5 µM | GI50 [53] 7.51 µM | GI50 [54] 31.8 µM | GI50 [55] 26.5 µM | GI50 [56] 32.3 µM | GI50 [57] 10.7 µM | GI50 [58] 4.28 µM
64.5 µM: TGI [14]
31.7 µM: TGI [44]
51.3 µM: TGI [16]
36.7 µM: TGI [40]
20.9 µM: TGI [46]
51 µM: TGI [25]

CCOC(=O)CNC(=O)C(C)NC(=O)C(NC(=O)CC(c1ncc[nH]1)c1ncc[nH]1)C(C)CC (stereo not drawn)
> 100 µM: TGI [1] | TGI [2] | TGI [3] | TGI [4] | TGI [6] | TGI [7] | TGI [8] | TGI [9] | TGI [10] | TGI [11] | TGI [12] | TGI [13] | TGI [14] | TGI [16] | TGI [17] | TGI [19] | TGI [20] | TGI [21] | TGI [22] | TGI [23] | TGI [24] | TGI [25] | TGI [26] | TGI [27] | TGI [59] | TGI [28] | TGI [30] | TGI [31] | TGI [32] | TGI [33] | TGI [34] | TGI [35] | TGI [36] | TGI [37] | TGI [39] | TGI [41] | TGI [42] | TGI [43] | TGI [44] | TGI [45] | TGI [47] | TGI [48] | TGI [49] | TGI [50] | TGI [51] | TGI [52] | TGI [53] | TGI [54] | TGI [55] | TGI [56] | TGI [57] | TGI [58]
